Conditions: 283.15 K, Liquid, Vibrating tube method

CCCCCCCC(=O)OCC(COC(=O)CCCCCCC)(COC(=O)CCCCCCC)COC(=O)CCCCCCC [pentaerythritol tetraoctanoate]
Conditions | mass density [kg/m3]
21118 kPa | 982
21140 kPa | 981.8
21159 kPa | 982
21181 kPa | 982
21200 kPa | 981.9
21219 kPa | 981.9
21238 kPa | 982
21258 kPa | 981.8
21280 kPa | 981.9
21299 kPa | 982
21318 kPa | 982
21341 kPa | 982.1
21360 kPa | 982
21379 kPa | 982.1
21402 kPa | 982.1
21421 kPa | 982.1
21440 kPa | 982
21460 kPa | 982
21483 kPa | 982
21502 kPa | 982.1
21525 kPa | 982.1
21545 kPa | 982.1
21564 kPa | 982.1
21584 kPa | 982.1
21607 kPa | 982.2
21626 kPa | 982
21647 kPa | 982.2
21670 kPa | 982.1
21690 kPa | 982.2
21710 kPa | 982.1
21730 kPa | 982
21755 kPa | 982.2
21775 kPa | 982.2
21795 kPa | 982.3
21815 kPa | 982.3
21839 kPa | 982.3
21859 kPa | 982.2
21879 kPa | 982.2
21898 kPa | 982.2
21922 kPa | 982.3
21943 kPa | 982.2
21963 kPa | 982.3
21987 kPa | 982.4
22008 kPa | 982.4
22033 kPa | 982.3
22054 kPa | 982.4
22074 kPa | 982.4
22094 kPa | 982.3
22115 kPa | 982.4
22140 kPa | 982.4
22160 kPa | 982.5
22185 kPa | 982.5
22205 kPa | 982.4
22226 kPa | 982.4
22251 kPa | 982.5
22271 kPa | 982.4
22292 kPa | 982.4
22318 kPa | 982.5
22339 kPa | 982.5
22360 kPa | 982.5
22382 kPa | 982.4
22407 kPa | 982.7
22428 kPa | 982.6
22453 kPa | 982.7
22474 kPa | 982.6
22496 kPa | 982.5
22517 kPa | 982.5
22543 kPa | 982.6
22564 kPa | 982.6
22586 kPa | 982.4
22612 kPa | 982.6
22634 kPa | 982.6
22655 kPa | 982.6
22681 kPa | 982.8
22703 kPa | 982.7
22725 kPa | 982.7
22822 kPa | 982.8
22844 kPa | 982.8
22866 kPa | 982.8
22889 kPa | 982.8
22916 kPa | 982.7
22938 kPa | 982.9
22961 kPa | 982.8
22987 kPa | 982.8
23010 kPa | 982.8
23032 kPa | 982.9
23059 kPa | 982.8
23082 kPa | 982.9
23104 kPa | 982.8
23132 kPa | 983
23154 kPa | 982.9
23177 kPa | 982.9
23204 kPa | 982.9
23227 kPa | 982.9
23250 kPa | 983
23278 kPa | 983
23301 kPa | 982.9
23324 kPa | 983
23348 kPa | 982.9
23375 kPa | 983.1
23398 kPa | 983.1
23422 kPa | 983.1
23450 kPa | 983
23473 kPa | 983
23497 kPa | 983.1
23525 kPa | 983.2
23549 kPa | 983.1
23573 kPa | 983.2
23597 kPa | 983.1
23625 kPa | 983.2
23649 kPa | 983.1
23672 kPa | 983.2
23701 kPa | 983.3
23725 kPa | 983.2
23753 kPa | 983.2
23777 kPa | 983.1
23801 kPa | 983.2
23831 kPa | 983.2
23857 kPa | 983.3
23881 kPa | 983.3
23905 kPa | 983.4
23934 kPa | 983.2
23959 kPa | 983.3
23983 kPa | 983.4
24008 kPa | 983.3
24038 kPa | 983.2
24062 kPa | 983.4
24087 kPa | 983.3
24117 kPa | 983.4
24142 kPa | 983.3
24168 kPa | 983.5
24194 kPa | 983.5
24219 kPa | 983.5
24248 kPa | 983.5
24273 kPa | 983.5
24304 kPa | 983.4
24329 kPa | 983.6
24354 kPa | 983.5
24385 kPa | 983.5
24410 kPa | 983.5
24436 kPa | 983.5
24466 kPa | 983.6
24492 kPa | 983.7
24518 kPa | 983.6
24544 kPa | 983.7
24576 kPa | 983.6
24601 kPa | 983.7
24632 kPa | 983.6
